Laboratory results: PMC5939596 (Cell chemical biology, 2016)
Non-standard residues stand in square brackets, D forms with d. *: point of attachment. ACC = NC(=O)Cc1cc(=O)oc2cc(N*)ccc12; Tic = O=C(O)[C@@H]1Cc2ccccc2CN1; AMC = Cc1cc(=O)oc2cc(N*)ccc12; Cbz = O=C(OCc1ccccc1)*

Experiments:
prolegumain (56 kDa) = target: T1, prolegumain (56 kDa) (Homo sapiens, UniProt Q99538); assay: Probe binding to prolegumain; conditions: immunoblotting
T1 sequence (Q99538 18-433): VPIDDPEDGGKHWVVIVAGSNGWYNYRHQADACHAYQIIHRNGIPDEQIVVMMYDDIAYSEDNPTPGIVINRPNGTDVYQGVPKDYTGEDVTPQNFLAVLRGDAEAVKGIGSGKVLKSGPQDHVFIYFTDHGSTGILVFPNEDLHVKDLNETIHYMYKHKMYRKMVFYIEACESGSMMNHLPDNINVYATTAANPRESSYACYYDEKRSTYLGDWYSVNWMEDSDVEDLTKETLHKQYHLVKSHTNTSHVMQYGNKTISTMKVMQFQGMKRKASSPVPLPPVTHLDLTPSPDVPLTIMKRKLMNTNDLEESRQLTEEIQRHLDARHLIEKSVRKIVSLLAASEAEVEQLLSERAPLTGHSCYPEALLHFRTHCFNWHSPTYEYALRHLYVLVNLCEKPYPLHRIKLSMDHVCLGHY

caspase-3 [1] = target: T2, caspase-3 (Homo sapiens, UniProt P42574); assay: Probe labelling in lysates of caspase-8/caspase-3 cotransfected M38L cells; format: cell-based; conditions: probe 1 μM, 30 min at 30°C, pH 5.8 or 7.4, immunoblotting
T2 sequence (P42574 29-175 limits assumed): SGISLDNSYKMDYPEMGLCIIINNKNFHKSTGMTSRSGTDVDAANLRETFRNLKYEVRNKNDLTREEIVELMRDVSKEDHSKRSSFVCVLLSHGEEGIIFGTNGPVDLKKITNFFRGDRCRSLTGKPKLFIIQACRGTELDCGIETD
T2 sequence (P42574 176-277 limits assumed): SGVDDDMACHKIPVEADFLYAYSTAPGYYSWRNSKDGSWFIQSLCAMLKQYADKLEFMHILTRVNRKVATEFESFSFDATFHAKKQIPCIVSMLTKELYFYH

caspase-3 [2] = target: T2, caspase-3; assay: Probe binding in cytochrome c/dATP-activated FreeStyle 293-F cytosolic extract; conditions: probe 0–1 μM, pH 5.8 and 7.2, 5 or 30 min at 30°C, immunoblotting
[3] = target: T3, recombinant auto-activated legumain (46 kDa) (Homo sapiens, UniProt Q99538); assay: Probe binding to recombinant enzyme; conditions: probe 10 nM, enzyme 50 nM, pH 5.8 and pH 7.2
T3 sequence (Q99538 18-323 limits assumed): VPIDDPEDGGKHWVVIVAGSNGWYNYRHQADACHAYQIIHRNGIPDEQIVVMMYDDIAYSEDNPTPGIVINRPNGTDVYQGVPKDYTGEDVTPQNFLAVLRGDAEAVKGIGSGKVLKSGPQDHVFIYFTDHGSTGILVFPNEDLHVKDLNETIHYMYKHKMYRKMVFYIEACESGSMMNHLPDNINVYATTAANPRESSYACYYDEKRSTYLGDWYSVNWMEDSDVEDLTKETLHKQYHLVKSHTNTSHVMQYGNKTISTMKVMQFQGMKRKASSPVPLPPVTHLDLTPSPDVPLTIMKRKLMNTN

legumain [4] = target: T4, legumain (Homo sapiens, UniProt Q99538); assay: Probe labelling in lysates of caspase-8/caspase-3 cotransfected M38L cells; format: cell-based; conditions: for probe labelling of legumain: probe 1 μM, 30 min at 30°C, pH 5.8 or 7.4, immunoblotting
T4 sequence (Q99538 18-323 limits assumed): T3 sequence (Q99538 18-323 limits assumed)

legumain [5] = target: T4, legumain; assay: Direct probe binding and inhibition of legumain in M38L cell lysate; format: biochemical; conditions: M38L lysate 3.5 μg total protein, probe 0–10 μM, pH 5.8, 30 min at 30°C
[6] = target: T5, autoactivated recombinant human legumain (Homo sapiens, UniProt Q99538); assay: Inhibition rate constants
T5 sequence (Q99538 18-323 limits assumed): T3 sequence (Q99538 18-323 limits assumed)

[7] = target: T5, autoactivated recombinant human legumain; assay: Km of legumain cleavage of Z-Ala-Ala-Asn-AMC; format: biochemical; conditions: 2.5 nM autoactivated rhLeg, substrate 1.565–200 nM, legumain assay buffer pH 5.8, 30°C
legumain [8] = target: T4, legumain; assay: Kinetics of ACC substrate hydrolysis by legumain; format: biochemical; conditions: for kcat/Km: hydrolysis by legumain
legumain [9] = target: T4, legumain; assay: pH dependence of legumain activity towards P1-Asn and P1-Asp substrates; format: biochemical
[10] = system: legumain over-expressing M38L cells; conditions: time-course 0–24 h, immunoblotting

biotin-6-ahx-D-Tyr-Tic-Ser-Asp-AOMK [MP-L01] [listing 1 of 2 here]
binding to cellular, secreted or recombinant prolegumain (56 kDa) (prolegumain (56 kDa)): did not bind
probe labelling of caspase-3 (caspase-3 [1]): could not detect such activity
binding to active caspase-3 (caspase-3 [2]): only weakly bound
binding to recombinant auto-activated legumain [3]: bound by MP-L01 at pH 5.8 and not at pH 7.2
pH dependence of legumain binding (legumain [4]; lysates of M38L cells, pH 5.8 versus 7.4): only detected at pH 5.8 and not at 7.4
probe labelling of legumain (legumain [4]): only binds legumain
potency relative to either methylated probes (MP-L02 or -L03) (legumain [5]): approximately 100 fold
inhibition rate constant (kobs/I) relative to the two methylated probes (MP-L02 and -L03) ([6]; 2.5 nM enzyme, Z-Ala-Ala-Asn-AMC substrate, pH 5.8, 30°C): approximately 100 fold

Cbz-Ala-Ala-Asn-{AMC}
Km [7]: 25.7 µM

Cbz-Ala-Ala-Asp-{ACC}
kcat/Km (legumain [8]): 1600 M⁻¹ s⁻¹

biotin-6-ahx-DEVD-AOMK [reference compound]
probe labelling of caspase-3 (caspase-3 [1]): labels both legumain and caspase-3
binding to active caspase-3 (caspase-3 [2]): strongly bound
probe labelling of legumain (legumain [4]): labels both legumain and caspase-3
inhibition of recombinant legumain (kobs/I), lower efficiency than MP-L01 [6]: 20 fold

Cbz-Ala-Ala-Asn-{ACC}
kcat/Km (legumain [8]): 36100 s^−1M^−1
times faster cleaved than its P1-Asp analog (legumain [8]; ratio of kcat/Km, Z-AAN-ACC versus Z-AAD-ACC): ~ 22

Ac-D-Tyr-Tic-Thr-Asn-ACC
optimal pH for legumain activity (legumain [9]): 5.8

Ac-[dY][Tic]TD-{ACC}
optimal pH for legumain activity (legumain [9]): 4.5

biotin-6-ahx-D-Tyr-Tic-Ser-Asp-AOMK [MP-L01] [listing 2 of 2 here]
incubation time for maximal detection of probe in cells [10]: 8 to 24 h
